# Test results: patent US8450320B2, “Pyrrolopyrazinone inhibitors of kinases” (AbbVie Inc., priority 2010, dated 2013)
# Biological target: T1, Cdc7 (BEV coexpressed huCDC7/DBF4) (Homo sapiens, UniProt O00311)
# T1 construct: made in house; host or cells: BEV (baculovirus expression vector)
# Test: Cdc7 enzyme inhibition assay ([33P]-ATP, biotinylated peptide substrate, FlashPlate)
# Type: biochemical
# Settings: Ki generated from IC50 assuming ATP-competitive inhibition; 1 μM ATP, apparent ATP Km 0.7 μM
# Protocol: This example describes the assays that may be used to identify compounds having kinase activity.
# Cdc7 (BEV coexpressed huCDC7/DBF4) is prepared internally. Cdc7 assays are conducted as follows with final concentrations as listed. In 384-well v-bottom polypropylene plates, 6 μL compound (2% DMSO), is mixed with 6 μL of Cdc7 (2 ug/mL), and Jerini peptide substrate A-All (biotin-C6linker-TPSDSLIYDDGLS) (2 μM), followed by immediate initiation with 6 μL […] (1 μM, 20 mCi/μmol) using a reaction buffer comprising 25 mM HEPES, pH 7.5, 1 mM DTT, 10 mM MgCl2, 100 μM Na3VO4, 0.075 mg/ml Triton X-100. Reactions are quenched after 1 hr by the addition of 90 μL stop buffer (50 mM EDTA, 2M NaCl). 85 μL of the stopped reactions are transferred to 384-well streptavidin-coated plates (FlashPlate Plus, Perkin Elmer), incubated 30 minutes at room temperature and washed 3 times with 0.05% Tween-20/PBS using an ELX-405 automated plate washer (BioTek), and counted on a TopCount Scintillation Plate Reader (Packard). IC50 values are determined via non-linear regression fitting of enzyme inhibition data and corresponding Ki values are generated assuming ATP-competitive (equilibrium) inhibition and using the experimentally determined apparent ATP Km of 0.7 μM (as determined using the above assay condition, but varying ATP).
# Table 1 depicts enzyme inhibition data (Ki) for exemplary compounds. In Table 1, “A” represents a Ki of less than 10 nM, “B” represents a Ki of between 10 nM and 100 nM, and “C” represents a Ki of greater than 100 nM.
# T1 sequence (O00311 whole entry): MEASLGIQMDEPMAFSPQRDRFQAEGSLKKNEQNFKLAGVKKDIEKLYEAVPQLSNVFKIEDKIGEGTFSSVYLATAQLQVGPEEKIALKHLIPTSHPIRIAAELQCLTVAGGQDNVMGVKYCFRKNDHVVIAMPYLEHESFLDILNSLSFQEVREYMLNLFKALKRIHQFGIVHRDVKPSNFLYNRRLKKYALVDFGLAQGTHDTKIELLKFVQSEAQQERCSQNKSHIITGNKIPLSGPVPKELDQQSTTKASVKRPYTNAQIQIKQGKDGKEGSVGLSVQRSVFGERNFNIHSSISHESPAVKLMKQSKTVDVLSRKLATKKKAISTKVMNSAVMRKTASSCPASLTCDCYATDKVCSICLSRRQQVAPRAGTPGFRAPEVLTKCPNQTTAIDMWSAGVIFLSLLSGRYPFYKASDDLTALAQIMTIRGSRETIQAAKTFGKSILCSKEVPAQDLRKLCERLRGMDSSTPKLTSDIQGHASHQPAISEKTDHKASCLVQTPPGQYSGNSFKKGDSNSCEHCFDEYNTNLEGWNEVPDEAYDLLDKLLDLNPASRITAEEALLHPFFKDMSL
# T1 sequence (Q9UBU7 whole entry partner): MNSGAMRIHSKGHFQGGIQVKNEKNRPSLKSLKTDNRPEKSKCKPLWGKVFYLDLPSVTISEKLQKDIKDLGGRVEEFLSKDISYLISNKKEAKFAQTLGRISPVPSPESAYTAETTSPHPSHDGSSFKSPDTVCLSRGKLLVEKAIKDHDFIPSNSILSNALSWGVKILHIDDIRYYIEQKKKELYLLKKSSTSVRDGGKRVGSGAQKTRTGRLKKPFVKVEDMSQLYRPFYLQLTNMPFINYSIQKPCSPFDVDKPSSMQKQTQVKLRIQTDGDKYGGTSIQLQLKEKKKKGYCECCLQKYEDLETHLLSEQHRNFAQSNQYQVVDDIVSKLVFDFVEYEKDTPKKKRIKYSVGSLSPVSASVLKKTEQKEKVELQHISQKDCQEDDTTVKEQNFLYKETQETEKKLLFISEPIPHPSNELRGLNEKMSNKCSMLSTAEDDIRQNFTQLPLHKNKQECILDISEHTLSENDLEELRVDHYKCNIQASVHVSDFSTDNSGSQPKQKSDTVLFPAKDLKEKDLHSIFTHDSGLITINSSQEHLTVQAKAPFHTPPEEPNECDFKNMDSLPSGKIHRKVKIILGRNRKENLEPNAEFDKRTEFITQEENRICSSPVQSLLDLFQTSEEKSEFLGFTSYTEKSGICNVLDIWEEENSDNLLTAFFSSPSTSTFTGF
row,SMILES,Ki [nM]
1,"N#Cc1cc(Cc2c[nH]c(=O)c3cc(-c4ccncc4)cn23)ccc1F [Example 1, 2-fluoro-5-{[1-oxo-7-(pyridin-4-yl)-1,2-dihydropyrrolo[1,2-a]pyrazin-4-yl]methyl}benzonitrile]",< 10
2,"N#Cc1cc(Cc2c[nH]c(=O)c3cc(-c4c[nH]c5ncccc45)cn23)ccc1F [Example 2, 2-fluoro-5-{[1-oxo-7-(1H-pyrrolo[2,3-b]pyridin-3-yl)-1,2-dihydropyrrolo[1,2-a]pyrazin-4-yl]methyl}benzonitrile]",< 10
3,"O=C(O)c1cc(Cc2c[nH]c(=O)c3cc(-c4c[nH]c5ncccc45)cn23)ccc1F [Example 3, 2-fluoro-5-{[1-oxo-7-(1H-pyrrolo[2,3-b]pyridin-3-yl)-1,2-dihydropyrrolo[1,2-a]pyrazin-4-yl]methyl}benzoic acid]",< 10
4,"CCOC(=O)c1cccc(Cc2c[nH]c(=O)c3cc(-c4ccncc4)cn23)c1 [Example 4, ethyl 3-{[1-oxo-7-(pyridin-4-yl)-1,2-dihydropyrrolo[1,2-a]pyrazin-4-yl]methyl}benzoate]",10 to 100
5,"CCOC(=O)c1cccc(Cc2c[nH]c(=O)c3cc(-c4c[nH]c5ncccc45)cn23)c1 [Example 6, ethyl 3-{[1-oxo-7-(1H-pyrrolo[2,3-b]pyridin-3-yl)-1,2-dihydropyrrolo[1,2-a]pyrazin-4-yl]methyl}benzoate]",< 10
6,"O=C(O)c1cccc(Cc2c[nH]c(=O)c3cc(-c4ccncc4)cn23)c1 [Example 7, 3-{[1-oxo-7-(pyridin-4-yl)-1,2-dihydropyrrolo[1,2-a]pyrazin-4-yl]methyl}benzoic acid]",10 to 100
7,"CCOC(=O)c1cccc(Cc2c[nH]c(=O)c3cc(-c4cccnc4)cn23)c1 [Example 8, ethyl 3-{[1-oxo-7-(pyridin-3-yl)-1,2-dihydropyrrolo[1,2-a]pyrazin-4-yl]methyl}benzoate]",> 100
8,"CCOC(=O)c1cccc(Cc2c[nH]c(=O)c3cc(-c4cn[nH]c4)cn23)c1 [Example 9, ethyl 3-{[1-oxo-7-(1H-pyrazol-4-yl)-1,2-dihydropyrrolo[1,2-a]pyrazin-4-yl]methyl}benzoate]",< 10
9,"O=C(O)c1cccc(Cc2c[nH]c(=O)c3cc(-c4c[nH]c5nccnc45)cn23)c1 [Example 11, 3-{[1-oxo-7-(5H-pyrrolo[2,3-b]pyrazin-7-yl)-1,2-dihydropyrrolo[1,2-a]pyrazin-4-yl]methyl}benzoic acid]",< 10
10,"CCOC(=O)c1cccc(Cc2c[nH]c(=O)c3cc(-c4c[nH]c5nccnc45)cn23)c1 [Example 12, ethyl 3-{[1-oxo-7-(5H-pyrrolo[2,3-b]pyrazin-7-yl)-1,2-dihydropyrrolo[1,2-a]pyrazin-4-yl]methyl}benzoate]",< 10
11,"NC(=O)c1cccc(Cc2c[nH]c(=O)c3cc(-c4cn[nH]c4)cn23)c1 [Example 13, 3-{[1-oxo-7-(1H-pyrazol-4-yl)-1,2-dihydropyrrolo[1,2-a]pyrazin-4-yl]methyl}benzamide]",< 10
12,"O=c1[nH]cc(Cc2cccc([N+](=O)[O-])c2)n2cc(-c3c[nH]c4ncccc34)cc12 [Example 14, 4-(3-nitrobenzyl)-7-(1H-pyrrolo[2,3-b]pyridin-3-yl)pyrrolo[1,2-a]pyrazin-1(2H)-one]",< 10
13,"O=C(c1ccc([N+](=O)[O-])cc1)c1c[nH]c(=O)c2cc(-c3c[nH]c4ncccc34)cn12 [Example 15, 4-(4-nitrobenzoyl)-7-(1H-pyrrolo[2,3-b]pyridin-3-yl)pyrrolo[1,2-a]pyrazin-1(2H)-one]",< 10
14,"CN(c1cccc(Cc2c[nH]c(=O)c3cc(-c4c[nH]c5ncccc45)cn23)c1)C1CCC1 [Example 19, 4-{3-[cyclobutyl(methyl)amino]benzyl}-7-(1H-pyrrolo[2,3-b]pyridin-3-yl)pyrrolo[1,2-a]pyrazin-1(2H)-one]",10 to 100
15,"CS(=O)(=O)Nc1cccc(Cc2c[nH]c(=O)c3cc(-c4c[nH]c5ncccc45)cn23)c1 [Example 21, N-(3-{[1-oxo-7-(1H-pyrrolo[2,3-b]pyridin-3-yl)-1,2-dihydropyrrolo[1,2-a]pyrazin-4-yl]methyl}phenyl)methanesulfonamide]",< 10
16,"O=c1[nH]cc(Cc2ccc(CNC3CCC3)cc2)n2cc(-c3c[nH]c4ncccc34)cc12 [Example 25, 4-{4-[(cyclobutylamino)methyl]benzyl}-7-(1H-pyrrolo[2,3-b]pyridin-3-yl)pyrrolo[1,2-a]pyrazin-1(2H)-one]",< 10
17,"O=c1[nH]cc(Cc2cccc(N(C3CCC3)C3CCC3)c2)n2cc(-c3c[nH]c4ncccc34)cc12 [Example 27, 4-[3-(dicyclobutylamino)benzyl]-7-(1H-pyrrolo[2,3-b]pyridin-3-yl)pyrrolo[1,2-a]pyrazin-1(2H)-one]",10 to 100
18,"O=c1[nH]cc(Cc2ccc(CNS(=O)(=O)C3CC3)cc2)n2cc(-c3c[nH]c4ncccc34)cc12 [Example 29, N-(4-{[1-oxo-7-(1H-pyrrolo[2,3-b]pyridin-3-yl)-1,2-dihydropyrrolo[1,2-a]pyrazin-4-yl]methyl}benzyl)cyclopropanesulfonamide]",< 10
19,"O=c1[nH]cc(Cc2ccc(CN(C3CCC3)C3CCC3)cc2)n2cc(-c3c[nH]c4ncccc34)cc12 [Example 30, 4-{4-[(dicyclobutylamino)methyl]benzyl}-7-(1H-pyrrolo[2,3-b]pyridin-3-yl)pyrrolo[1,2-a]pyrazin-1(2H)-one]",10 to 100

# Other lines, results leading:
row,Ki [nM],SMILES
1,< 10,"O=C(O)c1cccc(Cc2c[nH]c(=O)c3cc(-c4c[nH]c5ncccc45)cn23)c1 [Example 5, 3-{[1-oxo-7-(1H-pyrrolo[2,3-b]pyridin-3-yl)-1,2-dihydropyrrolo[1,2-a]pyrazin-4-yl]methyl}benzoic acid]"
2,< 10,"NC(=O)c1cccc(Cc2c[nH]c(=O)c3cc(-c4c[nH]c5ncccc45)cn23)c1 [Example 10, 3-{[1-oxo-7-(1H-pyrrolo[2,3-b]pyridin-3-yl)-1,2-dihydropyrrolo[1,2-a]pyrazin-4-yl]methyl}benzamide]"
3,< 10,"N#Cc1ccc(Cc2c[nH]c(=O)c3cc(-c4c[nH]c5ncccc45)cn23)cc1 [Example 16, 4-{[1-oxo-7-(1H-pyrrolo[2,3-b]pyridin-3-yl)-1,2-dihydropyrrolo[1,2-a]pyrazin-4-yl]methyl}benzonitrile]"
4,< 10,"O=C(Nc1ccc(Cc2c[nH]c(=O)c3cc(-c4c[nH]c5ncccc45)cn23)cc1)c1ccncc1 [Example 17, N-(4-{[1-oxo-7-(1H-pyrrolo[2,3-b]pyridin-3-yl)-1,2-dihydropyrrolo[1,2-a]pyrazin-4-yl]methyl}phenyl)isonicotinamide]"
5,< 10,"O=C(Nc1ccc(Cc2c[nH]c(=O)c3cc(-c4c[nH]c5ncccc45)cn23)cc1)C1CCC1 [Example 18, N-(4-{[1-oxo-7-(1H-pyrrolo[2,3-b]pyridin-3-yl)-1,2-dihydropyrrolo[1,2-a]pyrazin-4-yl]methyl}phenyl)cyclobutanecarboxamide]"
6,< 10,"O=C(Nc1ccc(Cc2c[nH]c(=O)c3cc(-c4c[nH]c5ncccc45)cn23)cc1)C1CC1 [Example 20, N-(4-{[1-oxo-7-(1H-pyrrolo[2,3-b]pyridin-3-yl)-1,2-dihydropyrrolo[1,2-a]pyrazin-4-yl]methyl}phenyl)cyclopropanecarboxamide]"
7,< 10,"Nc1cccc(Cc2c[nH]c(=O)c3cc(-c4c[nH]c5ncccc45)cn23)c1 [Example 22, 4-(3-aminobenzyl)-7-(1H-pyrrolo[2,3-b]pyridin-3-yl)pyrrolo[1,2-a]pyrazin-1(2H)-one]"
8,< 10,"Nc1ccc(Cc2c[nH]c(=O)c3cc(-c4c[nH]c5ncccc45)cn23)cc1 [Example 23, 4-(4-aminobenzyl)-7-(1H-pyrrolo[2,3-b]pyridin-3-yl)pyrrolo[1,2-a]pyrazin-1(2H)-one]"
9,< 10,"O=c1[nH]cc(Cc2ccc(NCc3ccccn3)cc2)n2cc(-c3c[nH]c4ncccc34)cc12 [Example 24, 4-{4-[(pyridin-2-ylmethyl)amino]benzyl}-7-(1H-pyrrolo[2,3-b]pyridin-3-yl)pyrrolo[1,2-a]pyrazin-1(2H)-one]"
10,< 10,"O=C(Nc1ccc(Cc2c[nH]c(=O)c3cc(-c4c[nH]c5ncccc45)cn23)cc1)c1ccco1 [Example 26, N-(4-{[1-oxo-7-(1H-pyrrolo[2,3-b]pyridin-3-yl)-1,2-dihydropyrrolo[1,2-a]pyrazin-4-yl]methyl}phenyl)-2-furamide]"
11,< 10,"O=C(Nc1ccc(Cc2c[nH]c(=O)c3cc(-c4c[nH]c5ncccc45)cn23)cc1)c1cccnc1 [Example 28, N-(4-{[1-oxo-7-(1H-pyrrolo[2,3-b]pyridin-3-yl)-1,2-dihydropyrrolo[1,2-a]pyrazin-4-yl]methyl}phenyl)nicotinamide]"
12,< 10,"CS(=O)(=O)NCc1ccc(Cc2c[nH]c(=O)c3cc(-c4c[nH]c5ncccc45)cn23)cc1 [Example 31, N-(4-{[1-oxo-7-(1H-pyrrolo[2,3-b]pyridin-3-yl)-1,2-dihydropyrrolo[1,2-a]pyrazin-4-yl]methyl}benzyl)methanesulfonamide]"
